# Measured values published in US4462991A, “Method of increasing oral absorption of polar bioactive agents” (INTERx Research Corp., priority 1982, dated 1984).
# Assay: Percent bioavailability after intraduodenal injection in anesthetized rats, (AUC)0-90 min relative to i.v.
# Conditions: male, Sprague-Dawley, rat, in vivo, other: intraduodenal injection, 2.5 mg per animal, pH 5, Control (no adjuvant), intraduodenal injection 0.25 ml, drug 10 mg/ml, pH 5, ionic strength 0.3, AUC 0-90 min vs i.v., read-out: Percent Bioavailability (% BA)
# Protocol: The following tests were run showing Percent Bioavailability (% BA)
# The above tests were done according to the following protocol:
# Animals: Male Sprague-Dawley rats (200-250 g)
# Anesthesia: Ethyl carbamate by i.m. injection
# Blood 0.6 ml from external jugular vein at
# (AUC)o^90 calculated from summation
# For the oral test an intraduodenal injection 1.0 cm distal to the pylorus was done . The volume of the injection was 0.25 ml at 0.3 ionic strength (adjusted with sodium chloride) and a pH of 5.
# The drug was administered at 10 mg/ml unless otherwise noted and the adjuvant at 20 mg/ml unless otherwise noted.
# The (AUC)i.v. was determined for each drug, based on the mean value from 3-6 animals.
smiles,measurement,value
CC(C)[C@@H]1NC(=O)[C@H](CCCCN)NC(=O)[C@@H](Cc2c[nH]c3ccccc23)NC(=O)[C@H](Cc2ccc(O)cc2)NC(=O)[C@H](C)N(C)C(=O)[C@H](Cc2ccccc2)NC1=O [Cyclo-(N-Me-Ala-Tyr-D-Trp-Lys-Val-Phe)],bioavailability,1%
